Source: patent US6656911B2, “Serine protease inhibitors” (Cortech, Inc., priority 1994, dated 2003)

Tests used:
[1] = tested on: polymorphoneucleocyte (PMN); test: Extracellular Matrix (ECM) degradation assay; assay type: cell-based; conditions: PMN's stimulated with opsonized zymosan, 4 hr at 37° C.; for ECM DATA % Inhibition 1 uM / inhibition at 1 µM: 1 uM inhibitor; for ECM DATA % Inhibition 5 uM / inhibition at 5 µM: 5 uM inhibitor
Description: Forty-eight well plates on which extracellular matrix had been established were supplied to Cortech by Dr. Simon's group at the State University of New York at Stony Brook. Briefly, the plates were prepared as follows: R22 rat heart smooth muscle cells were seeded into wells at 2.5×10^4 cells/cm. The cells were fed every 4 days with Eagle's Minimal Essential Media supplemented with fetal bovine serum, tryptose phosphate broth, cefotaxime and streptomycin. At confluence, daily supplements of 50 ug/ml ascorbic acid were added for 8 to 10 days during the synthesis of the ECM layer. [^35S]sulfate and [^3H]proline were also added to the culture media to incorporate radiolabel into the matrix. Cells were later lysed with 25 mM NH4OH. Plates were washed three times with water and once with phosphate-buffered saline containing 0.02% NaN3. Plates were stored at 4° C. until use.
Matrix degradation assays were performed as follows: 0.40 ml of Hanks balance salt solution (HBSS) containing 1 or 5 uM test inhibitor (final concentration; diluted from DMSO stock solution; <2% DMSO final concentration) was added to the wells. After 30 minutes, 50 ul of a polymorphoneucleocyte (PMN) suspension was added resulting in 5×10^5 cells/well. PMN's were stimulated with opsonized zymosan. Zymosan particles were washed and suspended in 0.5 ml human serum for 1 hr at 37° C., vortexing every 15 min. The particles were then washed three times with HBSS and added to wells at a ratio of 10 particles/PMN in a volume of 50 ul. After a 4 hr incubation at 37° C., a 100 ul aliquot of the supernatant was withdrawn for scintillation counting. Following removal of the remaining supernatant, the residual ECM was solubilized with 0.5 ml 2M NaOH. The amount of tritium in this solubilized ECM was accessed by scintillation. ECM degradation data are expressed as (soluble counts released/total ECM counts)—(basal counts released without PMN's/total ECM counts).

[2] = Blood level screening after oral dose; assay type: in vivo, Sprague-Dawley rats; conditions: rat, oral gavage 10 mg/kg; for concentration at 1 h / concentration at 3 h / concentration at 6 h: male, Sprague-Dawley, plasma; for concentration at 1 h: read-out: Plasma Levels (μM) 1 hr; for concentration at 3 h: read-out: Plasma Levels (μM) 3 hr; for concentration at 6 h: read-out: Plasma Levels (μM) 6 hr
Description: The inhibitors were dissolved or suspended in polyethylene glycol (PEG), PEG-400 or PEG:H2O:EtOH at a concentration of 10 mg/ml. Unfasted male Sprague-Dawley rats were given an oral dose of this solution by gavage. Rats received 10 mg inhibitor/kg body weight in a volume of 1 ml/kg. After 1,3 or 6 hr., the rats were killed with an overdose of urethane (2.5 g/kg; i.p.) and the blood collected in a heparinized tube via cardiac puncture. Red blood cells were separated from the plasma by centrifugation.
Depending on the inhibitor, one of four organics (ethyl acetate, toluene, isopropyl ether or methyl t-butyl ether) was used to extract the compound from the plasma. Inhibitor concentrations were measured by HPLC or LC/MS analysis.

[3] = target: T1, human neutrophil elastase (HNE) (Homo sapiens, UniProt P08246); test: HNE Ki of CE compounds, tested as described in WO 96/16080; assay type: biochemical; conditions: read-out: HNE Ki
T1 sequence (P08246 30-267): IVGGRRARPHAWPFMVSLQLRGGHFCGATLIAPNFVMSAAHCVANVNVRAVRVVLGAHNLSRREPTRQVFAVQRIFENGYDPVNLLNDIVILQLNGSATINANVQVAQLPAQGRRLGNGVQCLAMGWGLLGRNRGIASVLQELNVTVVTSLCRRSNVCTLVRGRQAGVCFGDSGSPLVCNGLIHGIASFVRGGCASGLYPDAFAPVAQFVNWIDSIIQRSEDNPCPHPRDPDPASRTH

Row | Molecule | Plasma Levels (μM) 1 hr [2] [µM] | Plasma Levels (μM) 3 hr [2] [µM] | Plasma Levels (μM) 6 hr [2] [µM] | Ki [3] [nM] | concentration at 1 h [2] [µM] | concentration at 3 h [2] [µM] | concentration at 6 h [2] [µM] | ECM DATA % Inhibition 1 uM [1] [%] | ECM DATA % Inhibition 5 uM [1] [%] | inhibition at 1 µM [1] [%] | inhibition at 5 µM [1] [%]
1 | 2-[(4-Fluorophenyl)-1,6-dihydro-1-pyrimidinyl]-N-[1-(2-[5-(3-methylbenzyl)-1,3,4-oxadiazolyl]carbonyl)-2-(S)-methylpropyl]acetamide [CE2254] | 1.751 | 1.575 | 2.316 | 2.4 | – | – | – | 57.2 | 58.4 | – | –
2 | Cc1cccc(Cc2nnc(C(=O)[C@@H](NC(=O)Cn3c(-c4ccc(F)cc4)ncc(N)c3=O)C(C)C)o2)c1 [CE2101, 2-[5-Amino-6-oxo-2-(4-fluorophenyl)-1,6-dihydro-1-pyrimidinyl]-N-[1-(2-[5(3-methylbenzyl)-1,3,4-oxadiazolyl]carbonyl)-2-(S)-methylpropyl]acetamide] | – | – | – | – | 1.24 | 1.37 | 1.04 | – | – | 44.6 | 51.2
3 | Cc1cccc(Cc2nnc(C(=O)C(NC(=O)CN3C(=O)C(N)N=C(c4ccccc4)c4ccccc43)C(C)C)o2)c1 [CE2134, (R,S)-3-Amino-2-oxo-5-phenyl-1,4,-benzodiazepine-N-[1-(2-[5-(3-methylbenzyl)-1,3,4-oxadiazolyl]carbonyl)-2-(S)-methylpropyl]acetamide] | – | – | – | 2 | – | 5.02 | – | – | – | 21.7 | 25.7
4 | Cc1cccc(Cc2nnc(C(=O)C(NC(=O)CN3C(=O)NC(c4ccccc4)C3=O)C(C)C)o2)c1 [CE2149, 5-(R,S)-Phenyl-2,4-imidazolidinedione-N-[1-(2-[5-(3-methylbenzyl)-1,3,4-oxadiazolyl]carbonyl)-2-(S)-methylpropyl]acetamide] | – | – | – | 0.28 | 0 | 0 | 0 | – | – | 51.3 | 55.9
5 | Cc1cccc(Cc2nnc(C(=O)[C@@H](NC(=O)CN3C(=O)CN=C(c4ccccc4)c4ccccc43)C(C)C)o2)c1 [CE2157] | – | – | – | 1.4 | – | 3.81 | – | – | – | 9.96 | 13.4
6 | Cc1cccc(Cc2nnc(C(=O)[C@@H](NC(=O)[C@@H]3CCCN3C(=O)[C@@H](NS(C)(=O)=O)C(C)C)C(C)C)o2)c1 [CE2163, Methylsulfonyl-L-valyl-N-[1-(2-[5-(3-methylbenzyl)-1,3,4-oxadiazolyl]carbonyl)-2-(S)-methylpropyl]-L-prolinamide] | – | – | – | 0.75 | – | 0.316 | – | – | – | 54.7 | 64
7 | Cc1cccc(Cc2nnc(C(=O)[C@@H](NC(=O)CN3C(=O)NC(c4ccc(N(C)C)cc4)C3=O)C(C)C)o2)c1 (stereo partly shown) [CE2194] | 1.11 | 0.553 | – | 2.4 | – | – | – | 41 | 58.7 | – | –

Further lines, with some results ahead:

Row | Plasma Levels (μM) 1 hr [2] [µM] | Plasma Levels (μM) 3 hr [2] [µM] | Plasma Levels (μM) 6 hr [2] [µM] | Ki [3] [nM] | concentration at 1 h [2] [µM] | concentration at 3 h [2] [µM] | concentration at 6 h [2] [µM] | Molecule | ECM DATA % Inhibition 1 uM [1] [%] | ECM DATA % Inhibition 5 uM [1] [%] | inhibition at 1 µM [1] [%] | inhibition at 5 µM [1] [%]
8 | – | – | – | – | 0.277 | 0.115 | 0.061 | Cc1cccc(Cc2nnc(C(=O)[C@@H](NC(=O)[C@@H]3CCCN3C(=O)[C@@H](NC(=O)OCc3ccccc3)C(C)C)C(C)C)o2)c1 [CE2072, (Benzyloxycarbonyl)-L-valyl-N-[1-(2-[5-(3-methylbenzyl)-1,3,4-oxadiazolyl]carbonyl)-2-(S)-methylpropyl]-L-prolinamide] | – | – | 64.8 | 74.5
9 | – | – | – | 0.069 | – | 0.064 | – | CC(C)[C@H](NC(=O)[C@@H]1CCCN1C(=O)[C@@H](NC(=O)OCc1ccccc1)C(C)C)C(=O)c1nnc(Cc2ccc(N(C)C)cc2)o1 [CE2100, (Benzyloxycarbonyl)-L-valyl-N-[1-(2-[5-(4-Dimethylaminobenzyl)-1,3,4-oxadiazolyl]carbonyl)-2-(S)-methylpropyl]-L-prolinamide] | – | – | 57.6 | 56.6
10 | – | – | – | 2.1 | – | 0.162 | – | Cc1cccc(Cc2nnc(C(=O)C(NC(=O)C3Cc4cccc5c4N3C(=O)C(N)CC5)C(C)C)o2)c1 [CE2130, (2S,5S)-5-Amino-1,2,4,5,6,7-hexahydroazepino-[3,2,1]-indole-4-one-carbonyl-N-[1-(2-[5-(3-methylbenzyl)-1,3,4-oxadiazolyl]carbonyl)-(R,S)-2-methylpropyl]amide] | – | – | 16.3 | 29
11 | 1.86 | 0.97 | – | 15.2 | – | – | – | Cc1cccc(Cc2nnc(C(=O)[C@@H](NC(=O)CN3C(=O)N[C@H](C(C)C)C3=O)C(C)C)o2)c1 [CE2174, 4-(R)-Isopropyl-2,5-imidazolidinedione-N-[1-(2-[5-(3-methylbenzyl)-1,3,4-oxadiazolyl]carbonyl)-2-(S)-methylpropyl]acetamide] | 1.49 | 18.3 | – | –
12 | – | – | – | 0.016 | 0.393 | 0.41 | 0 | CC(C)[C@H](NC(=O)[C@@H]1CCCN1C(=O)[C@@H](NC(=O)OCc1ccccc1)C(C)C)C(=O)c1nnc(Cc2ccc3c(c2)OCO3)o1 [CE2177, (Benzyloxycarbonyl)-L-valyl-N-[1-(2-[5-(3,4-methylenedioxybenzyl)-1,3,4-oxadiazolyl]carbonyl)-2-(S)-methylpropyl]-L-prolinamide] | – | – | 74.2 | 76.8
13 | – | – | – | 0.29 | – | 0.185 | – | CC(C)[C@H](NC(=O)[C@@H]1CCCN1C(=O)[C@@H](NC(=O)OCc1ccccc1)C(C)C)C(=O)c1noc(Cc2ccc3c(c2)OCO3)n1 [CE2178, (Benzyloxycarbonyl)-L-valyl-N-[1-(3-[5-(3,4-methylenedioxybenzyl)-1,2,4-oxadiazolyl]carbonyl)-2-(S)-methylpropyl]-L-prolinamide] | – | – | – | 34
14 | – | – | – | 7.6 | 1.23 | 0.599 | – | Cc1cccc(Cc2nnc(C(=O)C(NC(=O)CN3C(=O)C(c4ccccc4)N(C)C3=O)C(C)C)o2)c1 [CE2179, 5-(R,S)-Phenyl-1-methyl-2,4-imidazolidinedione-N-[1-(2-[5-(3-methylbenzyl)-1,3,4-oxadiazolyl]carbonyl)-2-(S)-methylpropyl]acetamide] | – | – | 48.8 | 45.9
15 | – | – | – | 8.2 | – | 0.57 | – | Cc1cccc(Cc2nnc(C(=O)C(NC(=O)CN3C(=O)C(Cc4ccccc4)N(CCN4CCOCC4)C3=O)C(C)C)o2)c1 [CE2184, 1-(N-Morpholinoethyl)-5-(S)-benzyl-2,4-imidazolidinedione-N-[1-(2-[5-(3-methylbenzyl)-1,3,4-oxadiazolyl]carbonyl)-2-(R,S)-methylpropyl]acetamide] | – | – | 30.5 | 32.4
16 | 0.77 | 0.47 | 0.25 | 4.1 | – | – | – | Cc1cccc(Cc2nnc(C(=O)[C@@H](NC(=O)CN3C(=O)NC(C)(c4ccccn4)C3=O)C(C)C)o2)c1 (stereo partly drawn) [CE2216, [4-(R,S)-(2-Pyridyl)-4-(R,S)-methyl]-2,5-imidazolidinedione-N-[1-(2-[5-(3-methylbenzyl)-1,3,4-oxadiazolyl]carbonyl)-2-(S)-methylpropyl]acetamide] | 32.1 | 37.15 | – | –
